Data: US11364222B2, “Combination therapy for treatment of cancer” (G1 Therapeutics, Inc., priority 2017, dated 2022)
Entries after “also recorded” stand apart in the source; their conditions may differ. Each block holds one compound with its values, some of them ahead of it.

Tests used:
[1] = test system: MCF-7 cells; test: MCF7 7 day proliferation assay in the presence of 0.1 nM E2 (Hoechst DNA content); type: cell-based; conditions: for IC50: Homo sapiens, MCF7, 168 h, read-out: IC50, MCF7 proliferation
[2] = test system: MCF-7 cells; test: MCF7 7 day proliferation assay in the presence of 20 nM insulin (Hoechst DNA content); type: cell-based; conditions: Homo sapiens, MCF7, 168 h, read-out: IC50, MCF7 insulin driven proliferation
[3] = test system: MCF7:WS8; test: Cell viability of MCF7:WS8, fluorescent DNA quantitation; type: cell-based; conditions: MCF7:WS8 cells, day 4, total DNA; for IC50: 96 h, read-out: MCF-7WS8 IC50
[4] = test system: MCF7:5C; test: Cell viability of MCF7:5C (tamoxifen resistant), fluorescent DNA quantitation; type: cell-based; conditions: 144 h, read-out: MCF-7:5C IC50
[5] = target: hERG (Homo sapiens, UniProt Q12809); test: hERG inhibition (summary statement)
Chain of hERG (Q12809 whole entry): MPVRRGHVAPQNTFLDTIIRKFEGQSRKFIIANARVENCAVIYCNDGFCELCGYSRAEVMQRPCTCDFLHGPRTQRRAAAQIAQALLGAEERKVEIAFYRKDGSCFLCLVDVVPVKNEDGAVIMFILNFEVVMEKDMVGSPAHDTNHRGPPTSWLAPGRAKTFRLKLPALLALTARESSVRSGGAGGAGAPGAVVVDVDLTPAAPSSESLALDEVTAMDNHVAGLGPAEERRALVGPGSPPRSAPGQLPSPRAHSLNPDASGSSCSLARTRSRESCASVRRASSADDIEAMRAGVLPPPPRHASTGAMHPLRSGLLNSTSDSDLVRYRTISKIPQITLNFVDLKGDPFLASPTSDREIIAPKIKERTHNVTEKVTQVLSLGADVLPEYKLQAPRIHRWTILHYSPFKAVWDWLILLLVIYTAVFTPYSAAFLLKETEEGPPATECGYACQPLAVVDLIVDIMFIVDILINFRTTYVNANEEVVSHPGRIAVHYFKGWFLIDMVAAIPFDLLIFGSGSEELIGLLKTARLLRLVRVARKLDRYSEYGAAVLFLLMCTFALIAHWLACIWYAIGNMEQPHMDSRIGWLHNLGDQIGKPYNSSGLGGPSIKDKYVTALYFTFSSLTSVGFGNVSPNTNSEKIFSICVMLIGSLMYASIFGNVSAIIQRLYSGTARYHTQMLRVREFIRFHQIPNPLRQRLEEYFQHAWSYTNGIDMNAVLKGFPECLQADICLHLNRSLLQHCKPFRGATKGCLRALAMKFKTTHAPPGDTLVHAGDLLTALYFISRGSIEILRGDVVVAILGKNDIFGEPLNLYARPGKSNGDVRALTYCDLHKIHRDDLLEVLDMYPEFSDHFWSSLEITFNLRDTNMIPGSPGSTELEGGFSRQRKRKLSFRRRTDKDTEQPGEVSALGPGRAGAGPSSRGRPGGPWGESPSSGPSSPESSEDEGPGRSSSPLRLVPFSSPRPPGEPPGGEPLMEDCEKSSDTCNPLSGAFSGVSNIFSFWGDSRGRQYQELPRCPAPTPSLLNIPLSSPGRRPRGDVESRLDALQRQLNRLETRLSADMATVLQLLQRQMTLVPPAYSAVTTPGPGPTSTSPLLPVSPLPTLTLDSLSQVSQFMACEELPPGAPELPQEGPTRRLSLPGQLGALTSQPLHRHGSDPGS

[6] = test system: tamoxifen-resistant (TamR) xenograft tumors; test: Tamoxifen-resistant (TamR) xenograft tumors, tumor volume; type: in vivo; conditions: 30 mg/kg qd and 100 mg/kg qd, approximately 70 days, FIG. 12B
[7] = test system: estrogen-receptor negative cell; test: Estrogen-receptor negative cell proliferation (summary statement); type: cell-based
[8] = Glucuronidation in gut intestinal mucosa and liver S9 fraction; type: in vitro ADME; conditions: gut intestinal mucosa and human S9 fraction from the liver
[9] = target: T1, estrogen receptor (ER) (Homo sapiens, UniProt P03372); conditions: MCF7 cells, presence or absence of proteasome pathway inhibitor MG132, FIG. 4
T1 sequence (P03372 1-595): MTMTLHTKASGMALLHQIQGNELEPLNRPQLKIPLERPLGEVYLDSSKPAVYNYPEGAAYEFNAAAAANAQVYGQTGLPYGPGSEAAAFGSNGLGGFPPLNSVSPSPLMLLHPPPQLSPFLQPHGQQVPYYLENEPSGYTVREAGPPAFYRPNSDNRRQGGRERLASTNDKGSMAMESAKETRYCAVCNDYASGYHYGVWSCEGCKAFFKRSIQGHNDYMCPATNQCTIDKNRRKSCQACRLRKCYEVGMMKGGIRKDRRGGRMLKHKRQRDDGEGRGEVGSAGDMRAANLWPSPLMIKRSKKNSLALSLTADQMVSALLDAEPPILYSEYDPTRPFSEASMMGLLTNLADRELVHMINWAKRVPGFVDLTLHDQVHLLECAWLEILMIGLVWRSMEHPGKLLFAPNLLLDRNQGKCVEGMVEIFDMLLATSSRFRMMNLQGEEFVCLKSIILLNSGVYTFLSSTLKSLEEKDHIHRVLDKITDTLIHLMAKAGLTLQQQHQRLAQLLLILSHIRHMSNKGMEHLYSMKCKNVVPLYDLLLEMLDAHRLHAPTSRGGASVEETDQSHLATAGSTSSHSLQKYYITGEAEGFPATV

[10] = test system: estrogen-receptor positive cell; test: Estrogen-receptor positive cell proliferation (summary statement); type: cell-based
[11] = test system: LTED xenograft tumors; test: LTED xenograft tumors, model of aromatase inhibitor resistance; type: in vivo, OVX nu/nu (ovariectomy nude) mice; conditions: Compound 20 5, 10, 30 or 100 mg/kg, 30 days of treatment, FIG. 13
[12] = Oral bioavailability (summary statement); conditions: in vivo

- IC50 [1]: 3.46 nM
SMILES: CC/C(=C(\c1ccc(O)cc1)c1ccc(OCCN(C)C)cc1)c1ccccc1 [4-hydroxytamoxifen]

- IC50 [1]: 0.04 nM
- IC50 [2]: 0.002 nM
SMILES: C[C@@H]1Cc2c([nH]c3ccccc23)[C@@H](c2c(F)cc(/C=C/C(=O)O)cc2F)N1CC(C)(C)F [AZD9496]

- MCF-7WS8 IC50 (nM) [3]: No Inhiibition
SMILES: O=C(O)/C=C/c1ccc(Oc2c(C(=O)c3ccc(O)cc3)sc3cc(O)ccc23)cc1 [Compound 2, (E)-3-(4-((6-Hydroxy-2-(4-hydroxybenzoyl)benzo[b]thiophen-3-yl)oxy)phenyl) acrylic acid]

- IC50 [4]: > 10 nM
- IC50 [3]: > 10 nM
SMILES: Cc1cc(F)ccc1C(=O)c1sc2cc(O)ccc2c1Oc1c(F)cc(/C=C/C(=O)O)cc1F [Compound 14, (E)-3-(3,5-Difluoro-4-((2-(4-fluoro-2-methylbenzoyl)-6-hydroxybenzo[b]thiophen-3-yl)oxy)phenyl) acrylic acid]

- IC50 [4]: < 10 nM
- IC50 [3]: < 10 nM
SMILES: Cc1cc(F)ccc1C(=O)c1sc2cc(O)ccc2c1Oc1ccc(/C=C/C(=O)O)cc1F [Compound 15, (E)-3-(3-Fluoro-4-((2-(4-fluoro-2-methylbenzoyl)-6-hydroxybenzo[b]thiophen-3-yl)oxy)phenyl) acrylic acid]

- IC50 [4]: < 100 nM
- IC50 [3]: < 100 nM
SMILES: Cc1cc(F)ccc1C(F)(F)c1sc2cc(O)ccc2c1Oc1ccc(/C=C/C(=O)O)cc1 [Compound 16, (E)-3-(4-((2-(Difluoro(4-fluoro-2-methylphenyl)methyl)-6-hydroxybenzo[b]thiophen-3-yl)oxy)phenyl)acrylic acid]

- IC50 [4]: < 100 nM
- IC50 [3]: < 100 nM
SMILES: Cc1cc(F)ccc1C1(c2sc3cc(O)ccc3c2Oc2ccc(/C=C/C(=O)O)cc2)CC1 [Compound 17, (E)-3-(4-((2-(1-(4-Fluoro-2-methylphenyl)cyclopropyl)-6-hydroxybenzo[b]thiophen-3-yl)oxy)phenyl) acrylic acid]

- MCF-7WS8 IC50 (nM) [3]: No Inhibition
SMILES: Cc1cc(F)ccc1C(=O)c1sc2cc(O)ccc2c1Oc1ccc(NC(=O)C(=O)O)cc1 [Compound 18, 2-((4-((2-(4-Fluoro-2-methylbenzoyl)-6-hydroxybenzo[b]thiophen-3-yl)oxy)phenyl)amino)-2-oxoacetic acid]

- IC50 [4]: > 10 nM
- MCF-7WS8 IC50 (nM) [3]: No Inhibition
SMILES: Cc1ccc(C(=O)c2sc3cc(O)ccc3c2Oc2ccc(NC(=O)C(=O)O)cc2)c(C)c1 [Compound 19, 2-((4-((2-(2,4-Dimethylbenzoyl)-6-hydroxybenzo[b]thiophen-3-yl)oxy)phenyl)amino)-2-oxoacetic acid]

- glucuronidation [8]: observed
- degradation of the estrogen receptor (ESR1a) with or without MG132 [9]: dependent on the absence of MG132
- IC50 ([1]; 0.1 nM estradiol (E2), 7 day): 0.26 nM
- IC50 ([2]; 20 nM insulin, 7 day): 0.028 nM
- oral bioavailability [12]: good
SMILES: Cc1cc(F)cc(C)c1C(=O)c1sc2cc(O)ccc2c1Oc1ccc(/C=C/C(=O)O)cc1 [Compound 20, (E)-3-(4-((2-(4-Fluoro-2,6-dimethylbenzoyl)-6-hydroxybenzo[b]thiophen-3-yl)oxy)phenyl) acrylic acid]
- IC50 [5]: > 10000 nM
- tumor volume, Compound 20 alone [6]: effective in decreasing tumor volume
- IC50 [7]: > 10 nM
- IC50 [10]: < 1 nM
- tumor volume [11]: decrease in tumor volume correlated with the dose level; also recorded: effective in decreasing tumor volume at all doses
- times more potent than fulvestrant ([1]; 0.1 nM E2, 7 day proliferation): ~4 times

- IC50 ([1]; 0.1 nM estradiol (E2), 7 day): 1.84 nM
- IC50 ([2]; 20 nM insulin, 7 day): 0.055 nM
SMILES: CC/C(=C(/c1ccc(/C=C/C(=O)O)cc1)c1ccc2[nH]ncc2c1)c1ccc(F)cc1Cl [GDC-0810]

- IC50 ([1]; 0.1 nM estradiol (E2), 7 day): 946 nM
SMILES: CC/C(=C(\c1ccccc1)c1ccc(/C=C/C(=O)O)cc1)c1ccccc1 [GW-5638, Etacstil]

- IC50 ([1]; 0.1 nM estradiol (E2), 7 day): 1.81 nM
SMILES: CC/C(=C(\c1ccccc1)c1ccc(/C=C/C(=O)O)cc1)c1ccc(O)cc1 [GW-7604]

SMILES: C[C@]12C[C@H](c3ccc(OCCCCCS(=O)(=O)CCCC(F)(F)C(F)(F)F)cc3)[C@@H]3c4ccc(O)cc4CC[C@H]3[C@@H]1CC[C@@H]2O [RU 58668]
- IC50 ([1]; 0.1 nM estradiol (E2), 7 day): 0.052 nM
- IC50 ([2]; 20 nM insulin, 7 day): 0.013 nM

- IC50 [1]: 72 nM
SMILES: Cc1c(-c2ccc(O)cc2)n(Cc2ccc(OCCN3CCCCCC3)cc2)c2ccc(O)cc12 [bazedoxifene]

SMILES: C[C@]12CC[C@@H]3c4ccc(O)cc4C[C@@H](CCCCCCCCC[S+]([O-])CCCC(F)(F)C(F)(F)F)[C@H]3[C@@H]1CC[C@@H]2O (stereo partly shown) [fulvestrant]
- IC50 [1]: 0.86 nM
- IC50 [2]: 0.149 nM

- IC50 ([1]; 0.1 nM estradiol (E2), 7 day): 0.17 nM
SMILES: Oc1ccc2c(c1)CC[C@H](c1ccccc1)[C@@H]2c1ccc(OCCN2CCCC2)cc1 [lasofoxofene, Lasofoxifene]

- IC50 [1]: 0.77 nM
SMILES: O=C(c1ccc(OCCN2CCCCC2)cc1)c1c(-c2ccc(O)cc2)sc2cc(O)ccc12 [raloxifene]
